Measured values as given in PubChem BioAssay AID248 (DTP/NCI, 2004).
Where “and” joins values, the source holds several entries; their conditions need not be identical. Identical values can stand only once. Inconclusive results and toxic doses are left out. Cut-off read from the data, not from the text of the source: active = T/C of 150% or more; inactive = T/C below 125%.

System: L1210 leukemia ip in BDF1 mice, survival T/C
Assay: NCI In Vivo Anticancer Drug Screen. Data for tumor model L1210 Leukemia (intraperitoneal) in B6D2F1 (BDF1) mice
Settings: endpoint: mean survival time, higher = longer survival
In short: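 Mice bearing the transplanted tumor received compound or vehicle. Survival of the treated group was divided by that of the vehicle-treated control group to give the ratio.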

[1] = dose: 100.0 mg/kg/injection, schedule: Q01DX009 (ip), vehicle: saline with Tween-80
[2] = dose: 100.0 mg/kg/injection, schedule: Q04DX003 (ip), vehicle: saline with Tween-80
[3] = dose: 200.0 mg/kg/injection, schedule: Q01DX009 (ip), vehicle: saline with Tween-80
[4] = dose: 200.0 mg/kg/injection, schedule: Q04DX003 (ip), vehicle: saline with Tween-80
[5] = dose: 400.0 mg/kg/injection, schedule: Q01DX009 (ip), vehicle: saline with Tween-80
[6] = dose: 400.0 mg/kg/injection, schedule: Q04DX003 (ip), vehicle: saline with Tween-80
[7] = dose: 50.0 mg/kg/injection, schedule: Q01DX001 (ip), vehicle: carboxymethylcellulose (CMC)
[8] = dose: 100.0 mg/kg/injection, schedule: Q01DX001 (ip), vehicle: carboxymethylcellulose (CMC)
[9] = dose: 200.0 mg/kg/injection, schedule: Q01DX001 (ip), vehicle: carboxymethylcellulose (CMC)
[10] = dose: 400.0 mg/kg/injection, schedule: Q01DX001 (ip), vehicle: carboxymethylcellulose (CMC)
[11] = dose: 100.0 mg/kg/injection, schedule: Q01DX001 (ip), vehicle: saline
[12] = dose: 200.0 mg/kg/injection, schedule: Q01DX001 (ip), vehicle: saline
[13] = dose: 400.0 mg/kg/injection, schedule: Q01DX001 (ip), vehicle: saline
[14] = dose: 100.0 mg/kg/injection, schedule: Q04DX003 (ip), vehicle: Klucel (hydroxypropylcellulose) (HPC)
[15] = dose: 200.0 mg/kg/injection, schedule: Q04DX003 (ip), vehicle: Klucel (hydroxypropylcellulose) (HPC)
[16] = dose: 100.0 mg/kg/injection, schedule: Q01DX001 (ip), vehicle: Klucel (hydroxypropylcellulose) (HPC)
[17] = dose: 100.0 mg/kg/injection, schedule: Q04DX002 (ip), vehicle: Klucel (hydroxypropylcellulose) (HPC)
[18] = dose: 200.0 mg/kg/injection, schedule: Q04DX002 (ip), vehicle: Klucel (hydroxypropylcellulose) (HPC)
[19] = dose: 400.0 mg/kg/injection, schedule: Q04DX002 (ip), vehicle: Klucel (hydroxypropylcellulose) (HPC)

Measured: T/C

Cc1cc2c(cc1C)C(=O)CCC2
inactive: dose: 100.0 mg/kg/injection, schedule: Q01DX001 (ip), vehicle: saline with Tween-80 97 % of control | [1] 109 % of control | dose: 100.0 mg/kg/injection, schedule: Q04DX002 (ip), vehicle: saline with Tween-80 88 % of control | [2] 97 % of control | dose: 200.0 mg/kg/injection, schedule: Q01DX001 (ip), vehicle: saline with Tween-80 97 % of control | [3] 109 % of control | dose: 200.0 mg/kg/injection, schedule: Q04DX002 (ip), vehicle: saline with Tween-80 90 % of control | [4] 98 % of control | dose: 400.0 mg/kg/injection, schedule: Q01DX001 (ip), vehicle: saline with Tween-80 91 % of control | [5] 115 % of control | dose: 400.0 mg/kg/injection, schedule: Q04DX002 (ip), vehicle: saline with Tween-80 90 % of control | [6] 95 % of control

Cc1cn(C2CC(O)C(CO)O2)c(=O)n(CCCc2ccccc2)c1=O (stereo not drawn)
inactive: [7] 93 % of control | [8] 90 % of control | [9] 87 % of control | [10] 90 % of control

c1ccc(CNCC2c3[nH]c4ccccc4c3CN2C2CCCCC2)cc1 (stereo not drawn)
inactive: dose: 75.0 mg/kg/injection, schedule: Q01DX001 (ip), vehicle: carboxymethylcellulose (CMC) 102 % of control | dose: 150.0 mg/kg/injection, schedule: Q01DX001 (ip), vehicle: carboxymethylcellulose (CMC) 90 % of control | dose: 300.0 mg/kg/injection, schedule: Q01DX001 (ip), vehicle: carboxymethylcellulose (CMC) 91 % of control

O=C(O)c1cc([N+](=O)[O-])cc([N+](=O)[O-])c1 (tested in a mixture with another compound)
inactive: dose: 3.13 mg/kg/injection, schedule: Q04DX002 (ip), vehicle: saline with Tween-80 100 % of control | dose: 6.25 mg/kg/injection, schedule: Q04DX002 (ip), vehicle: saline with Tween-80 106 % of control | dose: 25.0 mg/kg/injection, schedule: Q04DX002 (ip), vehicle: saline with Tween-80 96 % of control and 100 % of control | dose: 50.0 mg/kg/injection, schedule: Q04DX002 (ip), vehicle: saline with Tween-80 114 % of control

CCC(NCC(C)C)NCC(C)C
inactive: dose: 12.5 mg/kg/injection, schedule: Q04DX003 (ip), vehicle: saline 91 % of control | dose: 25.0 mg/kg/injection, schedule: Q04DX003 (ip), vehicle: saline 105 % of control | dose: 50.0 mg/kg/injection, schedule: Q04DX003 (ip), vehicle: saline 86 % of control

COC(CC(=O)N1Cc2cc3ccccc3nc2/C1=C/c1ccco1)OC
inactive: [2] 104 % of control | [4] 96 % of control | [6] 98 % of control

O=CC(OC(=O)c1ccccc1)C(OC(=O)c1ccccc1)C(COC(c1ccccc1)(c1ccccc1)c1ccccc1)OC(=O)c1ccccc1 (stereo not drawn)
inactive: [7] 97 % of control | [8] 103 % of control | [9] 103 % of control | [10] 91 % of control

O=C1CC(N2C(=O)C3C4CCC(O4)C3C2=O)C(=O)N1 (stereo not drawn)
inactive: [2] 100 % of control | [4] 108 % of control | [6] 104 % of control

Nc1ccc2c(c1)Cc1c(F)ccc(F)c1-2
inactive: [7] 107 % of control | [8] 102 % of control | [9] 109 % of control

COC(=O)c1c([N+](=O)[O-])ncn1C1OC(COC(C)=O)C(OC(C)=O)C1OC(C)=O (stereo not drawn)
inactive: [11] 102 % of control | [12] 103 % of control | [13] 94 % of control

CC(=O)OC12C3CCCC1CCCC2CCC3 (stereo not drawn)
inactive: [14] 109 % of control | [15] 93 % of control | dose: 400.0 mg/kg/injection, schedule: Q04DX003 (ip), vehicle: Klucel (hydroxypropylcellulose) (HPC) 93 % of control

OC1CSC1
inactive: dose: 50.0 mg/kg/injection, schedule: Q01DX001 (ip), vehicle: saline 89 % of control | [11] 96 % of control | [1] 96 % of control | [2] 98 % of control | [12] 100 % of control | [3] 98 % of control | [4] 98 % of control | [5] 96 % of control | [6] 102 % of control

CCCCCCCCOc1ccc(C2=NN(c3ccccc3)C(=O)C2)cc1
inactive: dose: 50.0 mg/kg/injection, schedule: Q04DX003 (ip), vehicle: Klucel (hydroxypropylcellulose) (HPC) 110 % of control | [16] 96 % of control | [14] 90 % of control | dose: 200.0 mg/kg/injection, schedule: Q01DX001 (ip), vehicle: Klucel (hydroxypropylcellulose) (HPC) 100 % of control | [15] 100 % of control | dose: 400.0 mg/kg/injection, schedule: Q01DX001 (ip), vehicle: Klucel (hydroxypropylcellulose) (HPC) 102 % of control

O=C1CCCN1C1CC2c3ccccc3C1c1cccc[n+]12 (stereo not drawn)
inactive: dose: 5.0 mg/kg/injection, schedule: Q01DX009 (ip), vehicle: saline sonified 94 % of control | dose: 10.0 mg/kg/injection, schedule: Q01DX009 (ip), vehicle: saline sonified 98 % of control | dose: 20.0 mg/kg/injection, schedule: Q01DX009 (ip), vehicle: saline sonified 97 % of control

CNC(=O)OCC1=CC(=O)C=C(OC)C1=O
inactive: dose: 6.25 mg/kg/injection, schedule: Q01DX009 (ip), vehicle: gum acacia 90 % of control | dose: 12.5 mg/kg/injection, schedule: Q04DX003 (ip), vehicle: gum acacia 94 % of control | dose: 25.0 mg/kg/injection, schedule: Q04DX003 (ip), vehicle: gum acacia 101 % of control

O=C(CI)Nc1ccc2oc(=O)c(C(=O)O)cc2c1
inactive: dose: 20.0 mg/kg/injection, schedule: Q01DX001 (ip), vehicle: Klucel (hydroxypropylcellulose) (HPC) 100 % of control | dose: 40.0 mg/kg/injection, schedule: Q01DX001 (ip), vehicle: Klucel (hydroxypropylcellulose) (HPC) 108 % of control | dose: 80.0 mg/kg/injection, schedule: Q01DX001 (ip), vehicle: Klucel (hydroxypropylcellulose) (HPC) 107 % of control | [16] 97 % of control

CCCCSP(Cc1ccccc1)SCCCC
inactive: [14] 96 % of control | [15] 94 % of control

Nc1cc2c3ccccc3ncc2c2ccccc12
inactive: [1] 106 % of control | [2] 104 % of control | [3] 108 % of control | [4] 94 % of control | [5] 108 % of control | [6] 105 % of control

CCCCC(=O)N/N=C/c1cccc(Br)c1
inactive: [11] 102 % of control | [12] 102 % of control | [13] 98 % of control

CCCS(=O)(=O)N1CC(C)OC(C)C1 (stereo not drawn)
inactive: [17] 91 % of control | [18] 91 % of control | [19] 89 % of control

CCCCCCCCCCCCCCCCCCCC(=O)COS(C)(=O)=O
inactive: [17] 88 % of control | [18] 88 % of control | [19] 88 % of control

COc1ccc(/C=C(\CC(=O)c2ccccc2)C(=O)Nc2ccccc2)cc1
inactive: [11] 93 % of control | dose: 100.0 mg/kg/injection, schedule: Q04DX003 (ip), vehicle: saline 109 % of control | [12] 96 % of control | dose: 200.0 mg/kg/injection, schedule: Q04DX003 (ip), vehicle: saline 98 % of control | [13] 103 % of control | dose: 400.0 mg/kg/injection, schedule: Q04DX003 (ip), vehicle: saline 95 % of control
